According to patent US9868697B2, “Phytosphingosine derivatives, and composition comprising same for preventing and treating inflammatory skin diseases, autoimmune diseases, and hyperkeratosis diseases” (THE CATHOLIC UNIVERSITY OF KOREA INDUSTRY—ACADEMIC …, priority 2011, dated 2018):
Entries after “also recorded” stand apart in the source; their conditions may differ.

Columns and labels:
NF-κB [1] = assay: Phosphorylation of IκBα and NF-κB in TPA-stimulated skin keratinocytes, western blot; type: cell-based, human; details: for inhibitory effect on the NF-κB activation: overall conclusion of the NF-κB tests
Description: (§1) Herein, in order to verify the effect of novel synthetic YG-II-6 compounds and their lead compound, phytosphingosine, on phosphorylation and degradation of IκBα, which is a protein that inhibits the activity of NF-κB by forming a complex with NF-κB, skin keratinocytes were pre-treated with respective compounds for 1 hour and then stimulated with 400 nM TPA for 15 minutes and 30 minutes, respectively. In order to verify the phosphorylation of NF-κB and the expression level of NF-κB in the cytoplasm and nucleus, skin keratinocytes were stimulated for 15 minutes and 1 hour, respectively. The results were confirmed by western blot analysis. In addition, the nuclear translocation of NF-κB was confirmed through reaction with antibodies, fluorescent labeling, and direct observation by microscopy. In order to verify the activity of the respective compounds at the transcription stage, cells were transfected with plasmids labeled with NF-κB luciferase reporter, and the luciferase activity was measured by the luciferase assay. In addition, the phosphorylation of IκBα and NF-κB was measured in the PTA-stimulated mouse skin.

NF-κB [2] = assay: NF-κB luciferase reporter assay, TPA stimulation; type: cell-based, human; details: FIG. 1C
Description: as §1

[3] = tested on: human-derived keratinocytes and primary culture skin keratinocytes; assay: Apoptosis in keratinocytes, FITC staining and TUNEL assay; type: cell-based; details: 24 hours, FIGS. 7C to 7E
Description: (§2) Therefore, in order to verify the degree of the cytotoxicity of the YG-II-6 compounds, their cytotoxicity on human-derived keratinocytes was confirmed by using the WST-1 reagent. In order to verify the effects of the compounds on the expression of proteins associated with apoptosis, the keratinocytes were treated with corresponding concentrations of the respective compound samples and stimulated with TPA for 24 hours, and the expression levels of proteins were confirmed by western blot assay. In addition, human-derived keratinocytes and primary culture skin keratinocytes were treated with the compounds, and after 24 hours, subjected to FITC staining and TUNEL assay, and the skin tissues isolated from TPA-induced mice was subjected to FITC staining

NF-κB [4] = assay: Nuclear translocation of NF-κB, immunostaining, TPA-stimulated skin keratinocytes; type: cell-based, human; details: TPA stimulation, FIG. 1B
Description: as §1

mouse skin tissues = assay: Apoptosis in skin tissues of TPA-induced mice, FITC staining; type: in vivo; details: FIGS. 7C to 7E
Description: as §2

[5] = tested on: human-derived keratinocytes; assay: Cytotoxicity on human-derived keratinocytes, WST-1 reagent; type: cell-based; details: WST-1, FIG. 7A
Description: as §2

ERK1/2, p38, and JNK = assay: MAP kinase phosphorylation in TPA-stimulated skin keratinocytes, western blot; type: cell-based, human; details: 400 nM TPA for 15 minutes, FIG. 4
Description: In order to verify the effects of the respective compounds on MAP kinase, skin keratinocytes were treated with the respective compounds for 1 hour, and then stimulated with 400 nM TPA for 15 minutes. The level of phosphorylation was confirmed by western blot assay.

SMILES | inhibitory effect on the NF-κB activation (NF-κB [1]) | NF-κB luciferase activity increased by TPA stimulation (NF-κB [2]) | apoptosis in the TPA-stimulated cells [3] | phosphorylation of IκBα and NF-κB increased by TPA stimulation (NF-κB [1]; skin keratinocytes, 1 hour pre-treatment, 400 nM TPA, FIG. 1A) | nuclear translocation of NF-κB (NF-κB [4]) | apoptosis in the mouse skin tissues (mouse skin tissues) | concentration at which cytotoxicity was shown [5] [µM] | phosphorylation of ERK1/2, p38, and JNK (ERK1/2, p38, and JNK)
CCCCCCCCCCCCCC[C@@H](O)[C@@H](O)[C@H](CO)NC(=O)/C=C/C(=O)O [fYG-II-6, (E)-4-oxo-4-(((2S,3S,4R)-1,3,4-trihydroxyoctadecan-2-yl)amino)but-2-enoic acid] | relatively greater inhibitory effect than mYG-II-6 | – | – | – | – | – | – | –
CCCCCCCCCCCCCC[C@@H](O)[C@@H](O)[C@@H](N)CO [phytosphingosine] | inhibited the activation of NF-κB | inhibited the luciferase activity | induced apoptosis | inhibited the phosphorylation of IκBα and NF-κB | inhibited the nuclear translocation of NF-κB | induced apoptosis | 5 to 10 | relatively weaker inhibitory activity than the YG-II-6 compounds; also recorded: no or little inhibitory effect
